In data set [1] the test system is Human retinal ganglial cells (RGC). Briefly: Viability of retinal ganglial cells (RGC) incubated with glutamate. The format is cell-based. As to conditions: for effect on RGC viability, compound alone: without glutamate; for RGC killed by glutamate in the presence of the compound: glutamate 5 mM plus compound (three concentrations). As for the experimental part: Human retinal ganglial cells (RGC) were incubated with glutamate (5 mM), the estrogen analogue 3,17-dihydroxyestra-1,3,5(10),9(11)-tetraene (ZYC1) or combination of glutamate and various concentrations of ZYC1.
RGC were treated with glutamate (5 mM) in the presence or absence of ZYC1.

The nature of data set [2]: Lipid peroxidation inhibition, thiobarbituric acid reactive substances (TBARS) method. The format is biochemical. As to conditions: inhibition of lipid peroxidation. An excerpt:
(§1) Because lipid peroxidation (LPO) is a common marker of damage induced by reactive oxygen species (ROS) (Gutteridge JMC, “Lipid-peroxidation and antioxidants as biomarkers of tissue-damage,” Clin Chem, 41: 1819-1828 (1995); Kaur and Geetha, “Screening methods for antioxidants—A review,” Mini-Rev Med Chem, 6: 305-312 (2006)), two assays were employed to measure capacity to inhibit LPO: the ferric thiocyanate (FTC) and the thiobarbituric acid reactive substances (TBARS) methods. With these assays, the autoxidation of linoleic acid (a lipid model) is measured in the absence and, then, presence of different concentration of antioxidants. […] During the oxidation process, peroxide is gradually decomposed to lower molecular-weight compounds such as malondialdehyde (MDA) that is measured by the TBARS method (Kikuzaki and Nakatani, J Food Sci, 58: 1407-1410 (1993)). […]
(§2) The TBARS assay is a widely adopted and sensitive method for measurement of lipid peroxidation (Callaway J K, Beart P M and Jarrott B. “A reliable procedure for comparison of antioxidants in rat brain homogenates.” J Pharmacol Toxicol Meth, 39: 155-162 (1998)). […] The MDA-TBA complex measured by the TBARs assay is a gauge of LOOH formation (Janero D R. “Malondialdehyde and thiobarbituric acid-reactivity as diagnostic indices of lipid peroxidation and peroxidative tissue injury.” Free Rad Biol Med, 9: 515-540 (1990)). […]

Data set [3] is described as follows: Lipid peroxidation inhibition, ferric thiocyanate (FTC) method. The format is biochemical. Conditions: inhibition of lipid peroxidation.
From the text: as §1, §2

A short description of data set [4]: logP measured by the shake-flask method. The format is physicochemical.
For data set [5] the following is noted: 37° C.
Experimental: By way of example, conversion of Formula II by NAD(P)H as an endogenous reducing agent was tested. […] At incremental time points, 100 μl aliquots were removed into ice-cold centrifuge tubes, and 100 μl of glacial acetic acid was added. After immediate extraction with ethyl acetate, the organic layer was evaporated under nitrogen stream. […] For the control experiment, no reducing agent was used.
Liquid chromatography separation was done using a Supelco (Bellfonte, Pa.) 5 cm×2.1 mm i.d. Discovery HS C-18 reversed-phase column with 0.25 ml/min water:methanol:2-propanol:acetic acid:dichloromethane (53:35:5:5:2, v/v) as a mobile phase. The sample residues were dissolved in 40 μl of mobile phase, respectively, and 5 μl of the solution was injected for analysis. Mass spectra were recorded on a quadruple ion-trap instrument (LCQ®, ThermoFinnigan, San Jose, Calif.) using positive-ion atmospheric-pressure chemical ionization (APCI) as the method of ionization. MS/MS and MS^3 product-ion scans were obtained after collision-induced dissociation (CID) with helium as the target gas. […] As an internal standard, 1,3,5(10)-estratrien-17α-ethynyl-17β-ol was added before each sample extraction.

Entries after “also recorded” stand apart in the source; their conditions may differ. Like-named read-outs stand apart in the source and are kept apart here.

As for `C[C@]12CC[C@@H]3c4ccc(O)cc4C[C@@H](CCCCCCCCC[S+]([O-])CCCC(F)(F)C(F)(F)F)[C@H]3[C@@H]1CC[C@@H]2O` (some centres unmarked) [IC1182,780, reference compound], the “antagonism of ZYC1 protection of RGC” value in data set [1] (glutamate 5 mM, ZYC1 plus various concentrations of estrogen receptor antagonist) was “little antagonism”.

By IC50 is commonly meant the concentration needed to halve the response being measured. On to `C[C@]12CC[C@@H]3c4cc(C56CC7CC(CC(C7)C5)C6)c(O)cc4CC[C@H]3[C@@H]1CC[C@@H]2O` [2-(1-adamantyl)-estra-1,3,5(10)-triene-3,17β-diol], for which the figures for the IC50 in data set [2] and in data set [3] were 0.75 ± 0.11 µM and 1.5 ± 0.1 µM, respectively. The logP in data set [4] came out at 6.51.

Take `C[C@]12CC=C3c4ccc(O)cc4CC[C@H]3[C@@H]1CCC2O` (some centres unmarked) [ZYC1, 3,17-dihydroxyestra-1,3,5(10),9(11)-tetraene]: in data set [1], the “effect on RGC viability, compound alone” value is listed as “no effect” and the “RGC killed by glutamate in the presence of the compound” value is listed as “killed significantly fewer cells; also recorded: reduced the number of RGC killed by glutamate”.

`C[C@]12CC[C@H]3[C@@H](CCC4=CC(=O)C=C[C@@]43O)[C@@H]1CCC2=O` [estrone quinol, 10β-hydroxyestra-1,4-diene-3,17-dione] had a rate of conversion in data set [5] (10-fold excess NADPH, 0.1 mM quinol, 0.1M sodium phosphate buffer pH 7.5) of 6e-07 ± 4e-08 M/min. Further, the formation of estrone entry in data set [5] (incubation with NADH or NADPH, pH 7.5) is given as “clearly detectable”.

As for `N[C@@H](CCC(=O)O)C(=O)O` [glutamate, reference compound], the “RGC killed by glutamate” value in data set [1] (glutamate 5 mM alone) is on record as “about 70%”.

With `C[C@]12CC[C@@H]3c4cc(C56CC7CC(CC(C7)C5)C6)c(O)cc4CC[C@H]3[C@@H]1CCC2=O` [ZYC3, 2-(1-adamantyl)-3-hydroxyestra-1,3,5(10)-trien-17-one], in data set [1], the “effect on RGC viability, compound alone” value is on record as “no affect” and the “RGC killed by glutamate in the presence of the compound” value is on record as “killed significantly fewer cells”. Besides, the IC50 in data set [2] turned out to be 5.8 ± 1.3 µM. Moreover, in data set [3], the IC50 stood at 5.3 ± 1.2 µM.

On to `C[C@]12CC[C@H]3[C@@H](CCC4=CC(=O)C(C56CC7CC(CC(C7)C5)C6)=C[C@@]43O)[C@@H]1CC[C@@H]2O` [2-(1-adamantyl)-10β,17β-dihydroxyestra-1,4-dien-3-one], for which, in data set [4] (n-octanol/water, shake-flask, read-out: logPexp), the logP was 3.26.

These data come from US20070213310A1, “Prodrugs for Use as Ophthalmic Agents” (priority 2002, published 2007).
